# Earlier results as cited in US20110251396A1, “Enantiomeric compositions of cicletanine, alone and in combination with other agents, for the treatment of disease” (Gilead Sciences, Inc., priority 2003, published 2011).
# Read-outs that look alike come from different tables or passages of the source.
# Experiments:
# [1] = system: T-type voltage-gated plasma membrane calcium channels
# [2] = system: patients with type 2 diabetes
# [3] = system: patients whose blood pressure had not been normalized; details: cicletanine 50 and 100 mg per day added; all three groups
# Dahl salt-sensitive rats = details: cicletanine treatment
# hypertensives = details: fell from 128; 150-200 mg/day cicletanine, over 12 months
smiles,measurement,setting,value
COCC(=O)O[C@]1(CCN(C)CCCc2nc3ccccc3[nH]2)CCc2cc(F)ccc2[C@@H]1C(C)C [mibefradil],selectivity for blocking T-type over L-type calcium channels,[1],10 to 50 times
CN(C)C(=N)N=C(N)N [Metformin],patients with gastrointestinal side effects,"[2]; diarrhea, nausea, abdominal pain, metallic taste",20% to 30%
same,weight loss,[2]; first 6 months of treatment,2 to 3 kg
same,decrease of low-density lipoprotein (LDL) cholesterol levels,[2]; monotherapy,10% to 15%
same,decrease of plasma triglyceride levels,[2]; monotherapy,10% to 15%
Cc1ncc2c(c1O)COC2c1ccc(Cl)cc1 (racemic) [cicletanine],patients with normalized blood pressure,[3],50%
same,hypoglycemic effect of tolbutamide,following 7 days of cicletanine 100 mg per day,did not change
same,peak insulin response to tolbutamide,single intravenous dose of tolbutamide following 7 days of cicletanine 100 mg per day,17.4 mU/L
same,high-density lipoprotein (HDL) cholesterol,Dahl salt-sensitive rats,increased
same,low-density lipoprotein (LDL) cholesterol,Dahl salt-sensitive rats,significantly decreased
same,average triglyceride levels,hypertensives,104 mg/dL
CCCCNC(=O)NS(=O)(=O)c1ccc(C)cc1 [tolbutamide],peak insulin response to tolbutamide,"single intravenous dose of tolbutamide alone, before cicletanine administration",29.2 mU/L
